From patent US5306819A, “Certain aryl a cycloalkyl fused imidazopyrazinols; and new class of GABA brain receptor ligands” (Neurogen Corporation, priority 1992, dated 1994)

biological target: GABAa receptor; experiment: assay for GABAa receptor activity: inhibition of 3H-RO15-1788 (3H-Flumazenil) binding to rat cortical tissue; settings: 3H-RO15-1788 0.5 nM, 30 min at 4°
Protocol: The pharmaceutical utility of compounds of this invention are indicated by the following assay for GABAa receptor activity.
Assays are carried out as described in Thomas and Tallman (J. Bio. Chem. 156: 9838-9842, J. Neurosci. 3:433-440, 1983). Rat cortical tissue is dissected and homogenized in 25 volumes (w/v) of 0.05M Tris HCl buffer (pH 7.4 at 4° C.). The tissue homogenate is centrifuged in the cold (4°) at 20,000×g for 20'. The supernatant is decanted and the pellet is rehomogenized in the same volume of buffer and again centrifuged at 20,000×g. The supernatant is decanted and the pellet is frozen at -20° C. overnight. The pellet is then thawed and rehomogenized in 25 volumes (original wt/vol) of buffer and the procedure is carried out twice. The pellet is finally resuspended in 50 volumes (w/vol of 0.05M Tris HCl buffer (pH 7.4 at […]).
Incubations contain […] of tissue homogenate, […] of radioligand 0.5 nM (^3 H-RO15-1788 [^3 H-Flumazenil] specific activity 80 Ci/mmol), drug or blocker and buffer to a total volume of […]. Incubations are carried for 30 min at 4° then are rapidly filtered through GFB filters to separate free and bound ligand. Filters are washed twice with fresh 0.05M Tris HCl buffer (pH 7.4 at 4° C.) and counted in a liquid scintillation counter. […] diazepam is added to some tubes to determine nonspecific binding. Data are collected in triplicate determinations, averaged and % inhibition of total specific binding is calculated. Total Specific Binding=Total-Nonspecific. In some cases, the amounts of unlabeled drugs is varied and total displacement curves of binding are carried out. Data are converted to a form for the calculation of IC50 and Hill Coefficient (nH).

| Structure (SMILES) | IC50 |
| --- | --- |
| O=c1c(-c2ccccc2F)nc2c[nH]c3c(n1-2)CCCC3 [Compound 1, 2-(2-fluorophenyl)-imidazo-[1,2-a]-6,7,8,9-tetrahydroquinoxalin-1(5H)-one] | 11 nM |
| COc1ccc(-c2nc3c[nH]c4c(n-3c2=O)CCCC4)c(F)c1 [Compound 8, 2-(2-Fluoro-4-methoxyphenyl)-imidazo-[1,2-a]-6,7,8,9-tetrahydroquinoxalin-1(5H)-one] | 5.4 nM |
| COc1ccc(-c2nc3c[nH]c4c(n-3c2=O)CCCCC4)c(F)c1 [Compound 15, 2-(2-Fluoro-4-methoxyphenyl)-cyclohept[b]imidazo[2,1-f]pyrazin-1(5H)-one] | 13 nM |
| COc1ccc(-c2nc3c[nH]c4c(n-3c2=O)CCC4)c(F)c1 [Compound 16, 2-(2-Fluoro-4-methoxyphenyl)-cyclopent[b]imidazo[2,1-f]pyrazin-1(5H)-one] | 15 nM |

test system: GABA receptor; experiment: not given; settings: Tallman et al., 1978; cited from earlier work

| Structure (SMILES) | Enhancement of benzodiazepine binding by GABA agonists is blocked |
| --- | --- |
| CN1CCc2cc3c(cc2[C@H]1[C@@H]1OC(=O)c2c1ccc1c2OCO1)OCO3 [(+) bicuculline] | blocked |
| CN1CCc2cc3c(cc2[C@@H]1[C@H]1OC(=O)c2c1ccc1c2OCO1)OCO3 [(-) bicuculline] | much less active |
